From patent US20050255491A1, “Small molecule and peptide arrays and uses thereof” (priority 2003, published 2005)

Columns and labels:
[1] = target: antibodies specific for the respective peptide antigens; settings: antibody against the listed peptide; value taken from the reference; read-out: Affinity KD; cited from earlier work
[2] = test system: obese (NZO×NON)F1 male mice; settings: chronic treatment; cited from earlier work
[3] = test system: alkaline protease from Bacillus sp. PS719; settings: cited from earlier work
[4] = test system: antibody C1 (specific for CRP-derived PET YEVQGEVF); experiment: Peptide competition assay, antibody C1; type: binding; settings: competitor peptide against immobilized PET, neighbors completely ineffective even at the stated concentration, read-out: half-maximum effective peptide concentration
Experimental: (§1) In certain embodiments of the invention, a peptide competition assay may be used to determine the binding specificity of a capture agent towards its target PET, as compared to several nearest neighbor sequences of the PET. The same protocol can be adapted for small molecule-based competition assay
(§2) For a typical peptide competition assay, the following illustrative protocol may be used: 1 μg/100 μl/well of each target peptide is coated in Maxisorb Plates with coating buffer (carbonate buffer, pH 9.6) overnight at 4° C., or 1 hour at room temperature. The plates are washed with 300 μl of PBST (1×PBS/0.05% Tween 20) for 4 times. Then 300 μl of blocking buffer (2% BSA/PBST) is added and the plates are incubated for 1 hour at room temperature. Following blocking, the plates are washed with 300 μl of PBST for 4 times.
Synthesized competition peptides are dissolved in water to a final concentration of 2 mM solution. Serial dilution of competition peptides (for example, from 100 pM to 100 μM) in digested human serum are prepared. These competition peptides at particular concentrations are then mixed with equal amounts of primary antibodies against the target peptide. These mixtures are then added to plate wells with immobilized target peptides respectively. Binding is allowed to proceed for 2 hours at room temperature. […] Add 100 μl of stop buffer (2N HCL) and read the plates at OD450. […]

[5] = test system: antibody P1 (specific for PSA-derived PET EPAELTDA); experiment: Peptide competition assay, antibody P1; type: binding; settings: for fold higher concentration at which nearest neighbor is still ineffective: relative to antigen PET EPAELTDA
Experimental: as §1, §2
Synthesized competition peptides are dissolved in water to a final concentration of 2 mM solution. Serial dilution of competition peptides (for example, from 100 pM to 100 μM) in digested human serum are prepared. These competition peptides at particular concentrations are then mixed with equal amounts of primary antibodies against the target peptide. These mixtures are then added to plate wells with immobilized target peptides respectively. Binding is allowed to proceed for 2 hours at room temperature. The plates are washed with 300 μl of PBST for 4 times. Then labeled secondary antibody against the primary antibody, such as 100 μl of 5,000× diluted anti-rabbit-IgG-HRP, is added and incubated for 1 more hour at room temperature. The plates are washed with 300 μl of PBST for 6 times. For detection of the HRP label activity, add 100 μl of TMB substrate (for HRP) and incubate for 15 minutes at room temperature. Add 100 μl of stop buffer (2N HCL) and read the plates at OD450. A peptide competition curve is plotted using the ABS at OD450 versus the competitor peptide concentrations. […]

[6] = target: antibody used in the PET-based peptide competition assay for the Survivin peptide …; experiment: Survivin Peptide Competitive Assay, ABS 450
[7] = target: PET-specific antibody used in the peptide competition assay for the Troponin T peptide …; experiment: peptide competition ELISA with immobilized peptide, in 10mM digested serum proteins, ABS 450
[8] = target: antibody C1, specific for the CRP-derived 8-mer PET sequence YEVQGEVF; experiment: peptide competition ELISA: soluble peptide series against the same immobilized peptide for a fixed concentration of antibody, in 10 mM digested serum proteins, HRP secondary antibody, ABS 450
[9] = target: antibody C1, specific for the CRP-derived 8-mer PET sequence YEVQGEVF; experiment: peptide competition assay, soluble PET against immobilized PET for antibody C1
[10] = target: antibody C2, specific for the CRP PET sequence GYSIFSYA; experiment: peptide competition ELISA: soluble peptide series against the same immobilized peptide for a fixed concentration of antibody, in 10 mM digested serum proteins, HRP secondary antibody, ABS 450
[11] = liberation of p-nitroaniline from the substrate

In the case of “HHHHH [HHHHH (HIS tag), 5-aa HIS tag peptide]”, the Kd [1] is given as 25 nM.

For “NYRAYATEPHAKKKS [15-aa peptide antigen of a literature antibody (EJB 267:1819, 2000)]”, the Kd [1] is given as 0.5 nM.

In the case of `CN(CCOc1ccc(CC2SC(=O)NC2=O)cc1)c1ccccn1` (stereo not drawn) [rosiglitazone], the “effect on hepatic steatosis” value [2] is given as “markedly exacerbated”.

In the case of “N-carbobenzoxy (CBZ)-L-arginine-p-nitroanilide”, the Km [3, 11] is given as 600 µM and the Vmax [3, 11] is given as 1.0 μmol min^−1 mg protein^−1.

For “RYDIEAKVTK [10-aa peptide antigen of a literature antibody (JI 169:6992, 2002)]”, the Kd [1] is given as 3.5 nM.

Work on YEVQGEVF yielded an IC50 [4] of roughly 1000 nM.

In the case of `Cc1ccc(S(=O)(=O)N[C@@H](CCCCN)C(=O)CCl)cc1` [TLCK, N-α-p-tosyl-L-lysine chloromethyl ketone], the “inhibition of protease activity” value [3] is given as “completely inhibited”.

For GATPEDLNQKLAGN, the Kd [1] is given as 1.4 nM.

In the case of PQSDPSVEPPLS, the Kd [1] is given as 16 nM.

In the case of “DPTQLTDA [nearest-neighbor 8-mer of EPAELTDA found in the human proteome]”, the “fold higher concentration at which nearest neighbor is still ineffective” value [5] is reported as 25,000 fold.

For “MDYKAFDN (FLAG tag) [8-aa FLAG tag peptide]”, the Kd [1] is given as 2.3 nM.

For `O=c1oc(Cl)c(Cl)c2ccccc12` [DCI, 3,4-dichloroisocoumarin], the “inhibition of protease activity” value [3] is listed as “completely inhibited”.

In the case of EPAELTDA, the IC50 ([5]; competitor peptide against immobilized PET, read-out: half-maximum effective peptide concentration) is reported as roughly 40 nM.

For `O=S(=O)(F)Cc1ccccc1` [PMSF, phenylmethylsulfonyl fluoride], the “inhibition of protease activity” value [3] is given as “completely inhibited”.

In the case of CRGTGSYNRSSFESSSG, the Kd [1] is listed as 2.8 nM.

With “EPVELTSA [nearest-neighbor 8-mer of EPAELTDA found in the human proteome]” the “fold higher concentration at which nearest neighbor is still ineffective” value [5] was 25,000 fold.

In the case of YDVPDYAS (HA tag), the Kd [1] is given as 2 nM.

For MGAPTLPPAWQPF [Survivin peptide …], the IC50 (read off the curve) [6] was 20 nM.

Molecule SFMPNLVPPK [Troponin T tryptic PET-peptide …] has an IC50 (read off the curve) [7] of 20 nM.

With YEVQGEVF [CRP-derived 8-mer PET peptide YEVQGEVF] the Detection Limit [8] was 100 pM and the IC50 [9] was 1000 nM.

Work on GYSIFSYA [CRP PET peptide GYSIFSYA] yielded a Detection Limit [10] of 1 nM and an IC50 (read off the curve) [10] of 1000 nM.
